# Legend:
# Experiment in all cases: relative viability (nuclei count vs DMSO), 5 days (fraction); higher = more cells survive
# [1] = compound: COc1cc2/c(=N/c3ccc(Br)cc3F)nc[nH]c2cc1OCC1CCN(C)CC1 [Vandetanib] + C[C@]1(O)C[C@@H](c2nc(-c3ccc4ccc(-c5ccccc5)nc4c3)c3c(N)nccn32)C1 [Linsitinib] (partner 1 µM)
# Summary of the method: (§1)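 Lung cancer cell lines were seeded in 1536-well plates and dosed by pin tool the next day, with either a single drug or a fixed anchor-drug dose combined with five library-drug doses (not always all listed) spaced in √10 steps. Five days later, one step fixed the cells and stained their nuclei (final 0.05% Triton X-100, 1% formaldehyde, 1 ug/ml Hoechst), and nuclei were counted on 4× images. Relative viability is the nuclei count in treated wells divided by the count in vehicle wells, and each value is the median of duplicate plates.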
# [2] = compound: C1=CC=C2C(=C1)N=C(S2)C(C#N)C3=NC(=NC=C3)NCCC4=CN=CC=C4 + Cc1nc(NC(=O)N2CCC[C@H]2C(N)=O)sc1-c1ccnc(C(C)(C)C(F)(F)F)c1 [Alpelisib] (partner 2 µM)
# Summary of the method: as §1
# [3] = compound: C1=CC=C2C(=C1)N=C(S2)C(C#N)C3=NC(=NC=C3)NCCC4=CN=CC=C4 + Cc1nc(Nc2ncc(C(=O)Nc3c(C)cccc3Cl)s2)cc(N2CCN(CCO)CC2)n1 [Dasatinib] (partner 0.075 µM)
# Summary of the method: as §1
# [4] = compound: C#Cc1cccc(Nc2ncnc3cc(OC)c(OCCCCCCC(=O)NO)cc23)c1 [CUDC-101] + Nc1ncn([C@H]2C[C@H](O)[C@@H](CO)O2)c(=O)n1 [Decitabine] (partner 2 µM)
# Summary of the method: as §1
cell line,measurement,setting,value
UMC-11,relative viability,[1]; first compound 0.02 µM,0.978
same,relative viability,[1]; first compound 0.06325 µM,0.994
same,relative viability,[1]; first compound 0.2 µM,0.97
same,relative viability,[1]; first compound 0.6325 µM,0.885
same,relative viability,[1]; first compound 2 µM,1
same,relative viability,[2]; first compound 0.005 µM,0.644
same,relative viability,[2]; first compound 0.01581 µM,1.12
same,relative viability,[2]; first compound 0.05 µM,0.924
same,relative viability,[2]; first compound 0.1581 µM,1.11
same,relative viability,[2]; first compound 0.5 µM,0.78
same,relative viability,[3]; first compound 0.005 µM,0.257
same,relative viability,[3]; first compound 0.01581 µM,0.481
same,relative viability,[3]; first compound 0.05 µM,0.447
same,relative viability,[3]; first compound 0.1581 µM,0.583
same,relative viability,[3]; first compound 0.5 µM,0.379
same,relative viability,[4]; first compound 0.01 µM,0.761
same,relative viability,[4]; first compound 0.03162 µM,0.477
same,relative viability,[4]; first compound 0.1 µM,0.601
same,relative viability,[4]; first compound 0.3162 µM,0.462
same,relative viability,[4]; first compound 1 µM,0.221
